Measurements reported in patent US20230167088A1, “1-PYRAZINYLPYRAZOLYL-3-OXYALKYL ACIDS AND THEIR DERIVATIVES, AND THEIR USE FOR CONTROL OF UNDESIRED PLANT GROWTH” (BAYER AKTIENGESELLSCHAFT, priority 2020, published 2023).

Legend:
[1] = system: ALOMY; test: Herbicidal post-emergence action 1a (greenhouse pots, visual rating); type: in vivo, Alopecurus myosuroides; conditions: rated visually about 3 weeks after treatment, 100% = plants have died, 0% = like control plants
In short: (§1)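 Weeds and crops sown in sandy loam in greenhouse pots were sprayed post-emergence at the one-leaf stage (2–3 weeks after sowing) with WP or EC formulations plus 0.5% additive at 600 l/ha water, 320 and/or 80 g/ha. About 3 weeks later damage was rated visually against untreated controls (0% = no effect, 100% = dead).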

[2] = system: AVEFA; test: as above; type: in vivo, Avena fatua; conditions: rated visually about 3 weeks after treatment, 100% = plants have died, 0% = like control plants
In short: as §1

[3] = system: ECHCG; test: as above; type: in vivo, Echinochloa crus-galli; conditions: rated visually about 3 weeks after treatment, 100% = plants have died, 0% = like control plants
In short: as §1

[4] = system: LOLRI; test: as above; type: in vivo, Lolium rigidum; conditions: rated visually about 3 weeks after treatment, 100% = plants have died, 0% = like control plants
In short: as §1

[5] = system: SETVI; test: as above; type: in vivo, Setaria viridis; conditions: rated visually about 3 weeks after treatment, 100% = plants have died, 0% = like control plants
In short: as §1

[6] = system: MATIN; test: as above; type: in vivo, Matricaria inodora; conditions: visual rating about 3 weeks after treatment
In short: as §1

[7] = system: PHBPU; test: as above; type: in vivo, Pharbitis purpurea; conditions: visual rating about 3 weeks after treatment
In short: as §1

[8] = system: POLCO; test: as above; type: in vivo, Polygonum convolvulus; conditions: visual rating about 3 weeks after treatment
In short: as §1

[9] = system: VERPE; test: as above; type: in vivo, Veronica persica; conditions: visual rating about 3 weeks after treatment
In short: as §1

[10] = system: ALOMY; test: Herbicidal pre-emergence action 2a (greenhouse pots, visual scoring); type: in vivo, Alopecurus myosuroides; conditions: dosage 320 g/ha, visual scoring after about 3 weeks
In short: (§2)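 Dose levels were 320 g/ha and/or 80 g/ha, delivered as an aqueous spray of wettable powder or emulsion concentrate plus 0.5% additive onto soil over sown seeds. Plants grew under good greenhouse conditions for about 3 weeks before visual percentage rating versus untreated pots.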

[11] = system: AVEFA; test: as above; type: in vivo, Avena fatua; conditions: dosage 320 g/ha, visual scoring after about 3 weeks
In short: as §2

[12] = system: ECHCG; test: as above; type: in vivo, Echinochloa crus-galli; conditions: dosage 320 g/ha, visual scoring after about 3 weeks
In short: as §2

[13] = system: LOLRI; test: as above; type: in vivo, Lolium rigidum; conditions: dosage 320 g/ha, visual scoring after about 3 weeks vs untreated controls
In short: as §2

[14] = system: SETVI; test: as above; type: in vivo, Setaria viridis; conditions: dosage 320 g/ha, visual scoring after about 3 weeks vs untreated controls
In short: as §2

[15] = system: ABUTH; test: as above; type: in vivo, Abutilon theophrasti; conditions: dosage 320 g/ha, visual scoring after about 3 weeks vs untreated controls
Text: [table] a) Seeds of monocotyledonous and dicotyledonous weed plants and crop plants are placed in plastic or organic plant pots and covered with soil. The compounds of the invention, formulated in the form of wettable powders (WP) or as emulsion concentrates (EC), are then applied onto the surface of the covering soil as aqueous suspension or emulsion with addition of 0.5% additive at a water application rate of 600 1/ha (converted). After the treatment, the pots are placed in a greenhouse and kept under good growth conditions for the trial plants. After about 3 weeks, the effect of the preparations is scored visually in comparison with untreated controls as percentages. For example, 100% activity=the plants have died, 0% activity=like control plants. Tables B1 to B15 below show the effects of selected compounds of the general formula (I) according to Tables 1 and 2 on various harmful plants and an application rate corresponding to 320 g/ha and/or 80 g/ha, which were obtained by the experimental procedure mentioned above.

[16] = system: AMARE; test: as above; type: in vivo, Amaranthus retroflexus; conditions: dosage 320 g/ha, visual scoring after about 3 weeks vs untreated controls
In short: as §2

[17] = system: MATIN; test: as above; type: in vivo, Matricaria inodora; conditions: dosage 320 g/ha, visual scoring after about 3 weeks vs untreated controls
In short: as §2

[18] = system: PHBPU; test: as above; type: in vivo, Pharbitis purpurea; conditions: dosage 320 g/ha, visual scoring after about 3 weeks vs untreated controls
In short: as §2

[19] = system: POLCO; test: as above; type: in vivo, Polygonum convolvulus; conditions: dosage 320 g/ha, visual scoring after about 3 weeks vs untreated controls
In short: as §2

[20] = system: VERPE; test: as above; type: in vivo, Veronica persica; conditions: dosage 320 g/ha, visual scoring after about 3 weeks vs untreated controls
In short: as §2

[21] = system: ABUTH; test: Herbicidal post-emergence action 1a (greenhouse pots, visual rating); type: in vivo, Abutilon theophrasti; conditions: visual rating about 3 weeks after treatment
In short: as §1

[22] = system: AMARE; test: as above; type: in vivo, Amaranthus retroflexus; conditions: dosage 320 g/ha, visual rating about 3 weeks after treatment
In short: as §1

Row | Structure (SMILES) | Post-emergence action against ALOMY in % ([1]; Dosage 320 g/ha) | Post-emergence action against AVEFA in % ([2]; Dosage 320 g/ha) | Post-emergence action against ECHCG in % ([3]; Dosage 80 g/ha) | Post-emergence action against ECHCG in % ([3]; Dosage 320 g/ha) | Post-emergence action against LOLRI in % ([4]; Dosage 320 g/ha) | Post-emergence action against SETVI in % ([5]; Dosage 80 g/ha) | Post-emergence action against SETVI in % ([5]; Dosage 320 g/ha) | Post-emergence action against PHBPU in % ([7]; dosage 80 g/ha) | Post-emergence action against PHBPU in % ([7]; dosage 320 g/ha) | Post-emergence action against POLCO in % ([8]; dosage 320 g/ha) | Post-emergence action against VERPE in % ([9]; dosage 80 g/ha) | Post-emergence action against VERPE in % ([9]; dosage 320 g/ha) | Pre-emergence action against ALOMY in % [10] | Pre-emergence action against AVEFA in % [11] | Pre-emergence action against ECHCG in % [12] | Pre-emergence action against LOLRI in % [13] | Pre-emergence action against SETVI in % [14] | Pre-emergence action against ABUTH in % [15] | Pre-emergence action against AMARE in % [16] | Pre-emergence action against MATIN in % [17] | further results
1 | C[C@@H](Oc1nn(-c2cnccn2)c(-c2cncc(F)c2)c1Br)C(=O)O [Example I-96] | 100% | 90% | 80% | 90% | 100% | 90% | 90% | 90% | 90% | 80% | 90% | 90% | 100% | 90% | 100% | 100% | 100% | 90% | 100% | 100% | Post-emergence action against LOLRI in % ([4]; Dosage 80 g/ha): 100%; Post-emergence action against MATIN in % ([6]; dosage 80 g/ha): 80%; Post-emergence action against MATIN in % ([6]; dosage 320 g/ha): 90%; Post-emergence action against POLCO in % ([8]; dosage 80 g/ha): 80%; Pre-emergence action against PHBPU in % [18]: 90%; Pre-emergence action against POLCO in % [19]: 100%; Pre-emergence action against VERPE in % [20]: 100%
2 | CCOC(=O)[C@@H](C)Oc1nn(-c2cnccn2)c(-c2cncc(F)c2)c1Cl [Example I-98] | 80% | 80% | 80% | 80% | 90% | 80% | 80% | 90% | 90% | 80% | 80% | 80% | 90% | 80% | 100% | 90% | 100% | 90% | 100% | 90% | Post-emergence action against ALOMY in % ([1]; Dosage 80 g/ha): 80%; Post-emergence action against AVEFA in % ([2]; Dosage 80 g/ha): 80%; Post-emergence action against ABUTH in % ([21]; dosage 80 g/ha): 80%; Post-emergence action against ABUTH in % ([21]; dosage 320 g/ha): 80%; Post-emergence action against AMARE in % [22]: 80%; Pre-emergence action against PHBPU in % [18]: 80%; Pre-emergence action against POLCO in % [19]: 90%; Pre-emergence action against VERPE in % [20]: 100%
